The subject of assay [1] is HCT-116 cells. In words: Annexin-V/PI apoptosis assay. In kind it is cell-based, human. Particulars: 10 µM, 24 h. How it is done: For the same set of compounds, the apoptosis-inducing effects in HCT-116 cells were assessed using Annexin-V/PI double staining at 10 µM (Figure 3).
The number of apoptotic/necrotic cells was analyzed using flow cytometry following the manufacturer’s protocol. Markers were assessed using a FACS-Caliburflow cytometer (Beckman Coulter, Taipei, Taiwan) and analyzed using WinMDI 2.8 software.
(§1) Figure 3 Apoptosis induction and cell cycle effects of compounds in HCT-116 cells. (A) The apoptotic population of HCT-116 cells was analyzed using flow cytometry after treatment with 10 µM of the test compound for 24 h followed by Annexin V/propidium iodide (PI) staining. (B) After treatment with compound concentrations of 10 µM for 24 h, cells were fixed, stained with propidium iodide (PI), and analyzed for cell cycle distribution. Results are expressed as the means ± SD from three independent experiments (* p < 0.05 and ** p < 0.01 *** p < 0.001, control versus compound).

Assay [2] deals with HCT-116 cells. Description: Cell cycle analysis (PI, flow cytometry). Type of assay: cell-based, human. The conditions noted are these: 10 µM, 24 h, PI staining. On the procedure: To analyze cell cycle changes, cells permeated at 1 × 10^6 × cells/mL were trypsinized and diluted and then fixed in 70% ethanol at 4 °C. Cell cycle arrest in HCT-116 cells following compound exposure was accomplished using propidium iodide (Sigma-Aldrich, St. Louis, MI, USA). The markers were then assessed using a FACS-Caliburflow cytometer (Beckman Coulter, Taipei, Taiwan) and analyzed using WinMDI software. […]
as §1
Background: A flow cytometer gives signals particle by particle.

Assay [3] concerns the target T1, human DNA Topo II (Homo sapiens, UniProt P11388).
T1 construct: purchased Topogen, Columbus, OH, USA
In words: Topo II-mediated relaxation of supercoiled pHOT1 plasmid DNA. The conditions noted are these: for DNA band pattern in Topo II relaxation assay: at 1 and 5 µM doses, similar to doxorubicin. In kind it is biochemical. How it is done:
Consequently, the effects of the synthesized compounds on Topo II activity were evaluated with a cell-free assay using a purified human DNA Topo II-protein-mediated relaxation of the negatively supercoiled pHOT1 plasmid DNA [40]. […] Two Topo II inhibitors (doxorubicin and etoposide) were used as positive controls.
The reaction was terminated by adding 2 μL of 10% SDS, followed by 2.5 μL of proteinase K (50 μg/mL) to digest the bound protein. The system was incubated at 37 °C for 15 min. The DNA product was finally analyzed using electrophoresis on a vertical 1.5% agarose gel at 2 volts/cm in 1 × TAE buffer and photographed using the Eagle Eye II system (Stratagene, La Jolla, CA, USA).
Figure 2 Effects of compounds on topoisomerase II activity. Effects on Topo II-mediated relaxation of supercoiled pHOT1 plasmid DNA in a cell-free system. Positive control: etoposide (10 µM); doxorubicin (5 µM) used as Topo II poison (induction of linear DNA); DNA relaxation: plasmid DNA + topo IIα + solvent control. Nick, nicked DNA; Sc, supercoiled DNA; Lin, linear DNA.

For assay [4], the target named is T2, PDE5A (Homo sapiens, UniProt O76074).
T2 construct: purchased BPS Bioscience, San Diego, CA, USA
In words: Phosphodiesterase 5 HTRF cGMP assay. Type of assay: biochemical. The conditions noted are these: for IC50: means ± S.D. (n = 4), read-out: PDE5 IC50; for inhibition at 10 µM: read-out: PDE5 % Inhibition at 10 μM. How it is done:
All the synthesized acridine derivatives were tested for their in vitro ability to inhibit PDE5A at a screening dose of 10 µM.
The enzyme activities of phosphodiesterase 5 (PDE5) were measured using an HTRF cGMP assay kit (Cisbio, Codolet, France). […] Afterward, the HTRF reagent (cGMP-d2 and anti-cGMP-cryptate) was added for 1 h at 25 °C, and PDE activity was assayed on an HTRF reader (Tecan Infinite F200 Pro).
(TR-FRET usually uses a lanthanide donor and a delayed reading to cut background.)

SMILES strings stand for the structures. Bounds are passed on as bounds.

T1 sequence (P11388 whole entry): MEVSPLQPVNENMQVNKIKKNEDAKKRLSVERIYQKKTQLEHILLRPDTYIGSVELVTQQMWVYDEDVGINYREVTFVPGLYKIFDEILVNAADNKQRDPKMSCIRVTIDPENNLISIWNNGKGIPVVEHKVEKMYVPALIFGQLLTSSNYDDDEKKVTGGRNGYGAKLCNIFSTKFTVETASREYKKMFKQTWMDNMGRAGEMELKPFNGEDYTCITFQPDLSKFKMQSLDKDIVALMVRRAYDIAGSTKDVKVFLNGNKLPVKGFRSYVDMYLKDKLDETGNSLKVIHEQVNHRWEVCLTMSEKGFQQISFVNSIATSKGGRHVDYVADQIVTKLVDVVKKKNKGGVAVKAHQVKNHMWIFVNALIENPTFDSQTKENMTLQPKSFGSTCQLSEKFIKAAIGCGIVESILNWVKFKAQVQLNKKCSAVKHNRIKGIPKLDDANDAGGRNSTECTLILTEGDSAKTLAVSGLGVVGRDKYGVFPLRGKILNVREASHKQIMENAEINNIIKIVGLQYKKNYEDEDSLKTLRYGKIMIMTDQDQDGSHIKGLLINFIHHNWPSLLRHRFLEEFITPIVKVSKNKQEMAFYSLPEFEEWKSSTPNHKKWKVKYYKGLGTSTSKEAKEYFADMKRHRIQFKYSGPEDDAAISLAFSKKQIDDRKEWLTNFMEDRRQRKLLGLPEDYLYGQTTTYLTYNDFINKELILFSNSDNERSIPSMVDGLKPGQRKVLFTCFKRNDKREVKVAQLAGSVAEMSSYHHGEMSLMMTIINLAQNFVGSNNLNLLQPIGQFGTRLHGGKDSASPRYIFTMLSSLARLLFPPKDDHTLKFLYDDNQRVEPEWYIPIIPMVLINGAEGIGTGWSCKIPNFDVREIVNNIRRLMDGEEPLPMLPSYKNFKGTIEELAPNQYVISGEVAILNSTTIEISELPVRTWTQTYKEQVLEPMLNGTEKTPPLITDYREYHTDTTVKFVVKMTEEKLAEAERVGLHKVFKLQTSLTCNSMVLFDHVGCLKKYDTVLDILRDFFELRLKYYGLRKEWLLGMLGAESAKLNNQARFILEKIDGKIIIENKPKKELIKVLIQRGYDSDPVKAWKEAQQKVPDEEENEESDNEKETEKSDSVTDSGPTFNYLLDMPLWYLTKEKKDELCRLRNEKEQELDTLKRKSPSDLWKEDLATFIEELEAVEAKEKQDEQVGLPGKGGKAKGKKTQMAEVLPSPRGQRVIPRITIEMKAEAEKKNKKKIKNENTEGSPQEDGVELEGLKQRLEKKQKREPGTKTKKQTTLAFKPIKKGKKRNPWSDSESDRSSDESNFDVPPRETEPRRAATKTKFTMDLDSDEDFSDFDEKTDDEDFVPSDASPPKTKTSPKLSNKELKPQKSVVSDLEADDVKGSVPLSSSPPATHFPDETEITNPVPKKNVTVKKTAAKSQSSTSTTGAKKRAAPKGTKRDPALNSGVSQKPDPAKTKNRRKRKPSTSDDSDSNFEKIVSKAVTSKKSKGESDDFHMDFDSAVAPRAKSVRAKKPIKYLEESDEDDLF

As for `Cc1ccc2nc3ccccc3c(NCc3ccccc3)c2c1` [Compound 30, Benzyl-(2-methylacridin-9-yl)-amine], the induction of apoptosis result in assay [1] is “less than 20%”. Also, in assay [2], the “effect on cell cycle” value is listed as “cell cycle arrest in the G2/M phase”. The “DNA band pattern in Topo II relaxation assay” value (“DNA band pattern” below) in assay [3] is “larger base pair band than nicked DNA”. Besides, in assay [4], the 50% inhibitory concentration (IC50) (as a rule, the point on the concentration scale where inhibition reaches its midpoint) was found to be 4.52 ± 1.74 µM and the inhibition (in general, how much of the control response was suppressed) at 10 µM is 68.8 ± 7.05%.
With `c1coc(CNc2c3ccccc3nc3ccccc23)c1` [Compound 14, Acridin-9-yl-furan-2-ylmethyl-amine], the induction of apoptosis in assay [1] is on record as 20%–50%. Moreover, in assay [2], the “effect on cell cycle” value was “arrested the cell cycle in the S phase”. Further, in assay [3], the “DNA band pattern” value was “larger base pair band than nicked DNA”. For the same compound, in assay [4], the IC50 is 7.43 ± 2.69 µM and the inhibition at 10 µM came out at 56.5 ± 7.38%.
On to `COc1ccc2nc3ccccc3c(NCc3ccc(F)cc3)c2c1` [Compound 28, (4-Fluorobenzyl)-(2-methoxyacridin-9-yl)-amine], for which the induction of apoptosis entry in assay [1] was “less than 20%”. The “effect on cell cycle” value in assay [2] was “increased the number of cells in the S phase and G2/M phase”. The “concentration at which Topo II inhibition (increase of supercoiled DNA) is shown” value in assay [3] (cell-free relaxation assay, gel) was 1 µM. Also, in assay [4], the IC50 came to 5.31 ± 1.27 µM and the inhibition at 10 µM came to 64.2 ± 7.47%.
Regarding `Cc1ccc2nc3ccccc3c(NCc3ccc(Cl)cc3)c2c1` [Compound 31, (4-Chlorobenzyl)-(2-methyl-acridin-9-yl)-amine], the induction of apoptosis in assay [1] is 20%–50%. Also, in assay [2], the “effect on cell cycle” value is “arrested the cell cycle in the S phase”. The “DNA band pattern” value in assay [3] was “larger base pair band than nicked DNA”. Besides, in assay [4], the IC50 was determined as 4.78 ± 1.48 µM and the inhibition at 10 µM stood at 65.7 ± 7.48%.
Regarding `Fc1ccc(CNc2c3ccccc3nc3ccccc23)cc1F` [Compound 22, Acridin-9-yl-(3,4-difluorobenzyl)-amine], in assay [1], the induction of apoptosis entry is “less than 20%”. The “effect on cell cycle” value in assay [2] is given as “cell cycle arrest in the G2/M phase”. The “DNA band pattern” value in assay [3] is “larger base pair band than nicked DNA”. In assay [4], the IC50 was above 10 µM and the inhibition at 10 µM was determined as 36.2 ± 9.78%.
`Fc1ccc(CNc2c3ccccc3nc3ccccc23)c(F)c1` [Compound 21, Acridin-9-yl-(2,4-difluorobenzyl)-amine]: the induction of apoptosis result in assay [1] is “less than 20%”. Besides, the “effect on cell cycle” value in assay [2] is listed as “cell cycle arrest in the G2/M phase”. In addition, in assay [3], the “DNA band pattern” value is “larger base pair band than nicked DNA”. Besides, in assay [4], the IC50 is above 10 µM and the inhibition at 10 µM turned out to be 31.9 ± 8.01%.
For the compound `Fc1cccc(CNc2c3ccccc3nc3ccccc23)c1F` [Compound 20, Acridin-9-yl-(2,3-difluorobenzyl)-amine], the induction of apoptosis in assay [1] is given as 20%–50%. Also, the “effect on cell cycle” value in assay [2] is “cell cycle arrest in the S phase and reduced the percentage of cells in the G2/M phase”. Also, the “DNA band pattern” value in assay [3] was “larger base pair band than nicked DNA”. For the same compound, in assay [4], the IC50 was found to be 7.25 ± 2.21 µM and the inhibition at 10 µM came out at 57.9 ± 6.04%.

Values taken from PMC9866191, “Novel 9-Benzylaminoacridine Derivatives as Dual Inhibitors of Phosphodiesterase 5 and Topoisomerase II for the Treatment of Colon Cancer” (Molecules, 2023).
